Test results from ChEMBL document CHEMBL1649193, “Statins as potential antimalarial drugs: low relative potency and lack of synergy with conventional antimalarial drugs” (Antimicrob Agents Chemother, 2009).

Columns and labels:
Format in all cases: functional, organism-based
Plasmodium falciparum [1] = test: Antimalarial activity against chloroquine-resistant Plasmodium falciparum Dd2 assessed as Plasmodium lactate dehydrogenase release after 48 hrs by colorimetry; settings: Dd2, 48 h
Plasmodium falciparum [2] = test: Antimalarial activity against chloroquine-resistant Plasmodium falciparum E8B assessed as Plasmodium lactate dehydrogenase release after 48 hrs by colorimetry
Plasmodium falciparum [3] = test: Antimalarial activity against chloroquine-sensitive Plasmodium falciparum 3D7 assessed as Plasmodium lactate dehydrogenase release after 48 hrs by colorimetry; settings: 3D7, 48 h

| Compound | IC50 (Plasmodium falciparum [1]) | IC90 (Plasmodium falciparum [1]) | IC50 (Plasmodium falciparum [2]) | IC90 (Plasmodium falciparum [2]) | IC50 (Plasmodium falciparum [3]) | IC90 (Plasmodium falciparum [3]) |
| --- | --- | --- | --- | --- | --- | --- |
| CC(C)c1c(C(=O)Nc2ccccc2)c(-c2ccccc2)c(-c2ccc(F)cc2)n1CC[C@@H](O)C[C@@H](O)CC(=O)O [ATORVASTATIN] | 17 µM | 39 µM | 17 µM | 39 µM | 25 µM | 68 µM |
| CC(C)c1nc(N(C)S(C)(=O)=O)nc(-c2ccc(F)cc2)c1/C=C/[C@@H](O)C[C@@H](O)CC(=O)O [ROSUVASTATIN] | 80 µM | 232 µM | 80 µM | 232 µM | 80 µM | 205 µM |
